The record followed here is patent US20260102359A1, “COMBINATION TREATMENT OF DERMAL AND TRANSDERMAL FIBROTIC DISEASES, DISORDERS AND ASSOCIATED PAIN AND INFLAMMATION” (ERESINA, LLC, priority 2022, published 2026).

Molecules are shown by their SMILES. Structures can show the parent of a compound that is named as a salt. Where a SMILES comes first, the peptide text is derived from it. Bridges are numbered along the chain shown (N, C = ends). [ ]: non-standard residue; d: D form. hArg = N=C(N)NCCCC[C@H](N)C(=O)O; Mpa = O=C(O)CCS

The series concerns hDMFa myofibroblast cells.

Turning to `O=S(=O)([O-])CCCS(=O)(=O)[O-].[Na+].[Na+]` [Cmpd 423, Eprodisate disodium], the “Compound Myofibroblast Cytotoxicity Activity” value is on record as “++”.

On to `N=C(N)NCCCC[C@@H]1NC(=O)CCSSC[C@@H](C(N)=O)NC(=O)[C@@H]2CCCN2C(=O)[C@H](Cc2c[nH]c3ccccc23)NC(=O)[C@H](CC(=O)O)NC(=O)CNC1=O` [Cmpd 424, Eptifibatide Acetate] ([Mpa][hArg]GDWPC-NH2; disulfide 1-7), for which the “Compound Myofibroblast Cytotoxicity Activity” value is given as “++”.

With `COc1ccc2[n-]c([S+]([O-])Cc3ncc(C)c(OC)c3C)nc2c1.COc1ccc2[n-]c([S+]([O-])Cc3ncc(C)c(OC)c3C)nc2c1.[Mg+2]` (stereo not shown) [Cmpd 427, Esomeprazole Magnesium], the “Compound Myofibroblast Cytotoxicity Activity” value was “++”.

For `COc1ccc2[n-]c([S@@+]([O-])Cc3ncc(C)c(OC)c3C)nc2c1.COc1ccc2[n-]c([S@@+]([O-])Cc3ncc(C)c(OC)c3C)nc2c1.O.O.O.[Mg+2]` [Cmpd 428, Esomeprazole Magnesium trihydrate], the “Compound Myofibroblast Cytotoxicity Activity” value is given as “++”.

Regarding `C[C@]12CC[C@@H]3c4ccc(O)cc4CC[C@H]3[C@@H]1CC[C@@H]2OC(=O)CCC1CCCC1` [Cmpd 430, Estradiol Cypionate], the “Compound Myofibroblast Cytotoxicity Activity” value is “+++”.

For the compound `CCCCC(=O)O[C@H]1CC[C@H]2[C@@H]3CCc4cc(O)ccc4[C@H]3CC[C@]12C` [Cmpd 431, Estradiol valerate], the “Compound Myofibroblast Cytotoxicity Activity” value is listed as “+++”.

For `C[C@]12CC[C@@H]3c4ccc(OS(=O)(=O)O)cc4CC[C@H]3[C@@H]1CCC2=O` [Cmpd 432, Estropipate], the “Compound Myofibroblast Cytotoxicity Activity” value is recorded as “+++”.

With `C=C(CC)C(=O)c1ccc(OCC(=O)O)c(Cl)c1Cl` [Cmpd 434, Ethacrynic Acid], the “Compound Myofibroblast Cytotoxicity Activity” value was “+++”.

In the case of `CCC1(C)CC(=O)NC1=O` (stereo not shown) [Cmpd 436, Ethosuximide], the “Compound Myofibroblast Cytotoxicity Activity” value is reported as “++”.

With `CCOC(=O)C=Cc1ccccc1` [Cmpd 437, Ethyl Cinnamate], the “Compound Myofibroblast Cytotoxicity Activity” value is “++”.

With `C#C[C@]1(OC(C)=O)CC[C@H]2[C@@H]3CCC4=C[C@@H](OC(C)=O)CC[C@@H]4[C@H]3CC[C@@]21C` [Cmpd 439, Ethynodiol diacetate], the “Compound Myofibroblast Cytotoxicity Activity” value is “++”.

For `CCOC(=O)/C=C(C)/C=C/C=C(C)/C=C/c1c(C)cc(OC)c(C)c1C` [Cmpd 442, Etretinate], the “Compound Myofibroblast Cytotoxicity Activity” value was “+++”.

Regarding `Cc1cc(-c2ccc(/N=N/c3ccc4c(S(=O)(=O)[O-])cc(S(=O)(=O)[O-])c(N)c4c3O)c(C)c2)ccc1/N=N/c1ccc2c(S(=O)(=O)[O-])cc(S(=O)(=O)[O-])c(N)c2c1O.[Na+].[Na+].[Na+].[Na+]` [Cmpd 445, Evans Blue tetrasodium salt], the “Compound Myofibroblast Cytotoxicity Activity” value is “++”.

`CO[C@H]1C[C@@H]2CC[C@@H](C)[C@@](O)(O2)C(=O)C(=O)N2CCCC[C@H]2C(=O)O[C@H]([C@H](C)C[C@@H]2CC[C@@H](OCCO)[C@H](OC)C2)CC(=O)[C@H](C)/C=C(\C)[C@@H](O)[C@@H](OC)C(=O)[C@H](C)C[C@H](C)/C=C/C=C/C=C/1C` [Cmpd 446, Everolimus (RAD001)]: the “Compound Myofibroblast Cytotoxicity Activity” value is “+++++”.

`CC(=O)OCC(CCn1cnc2cnc(N)nc21)COC(C)=O` [Cmpd 447, Famciclovir]: the “Compound Myofibroblast Cytotoxicity Activity” value is recorded as “+++”.

Turning to `CCOC(=O)C1=C(C)NC(C)=C(C(=O)OC)C1c1cccc(Cl)c1Cl` (stereo not shown) [Cmpd 449, Felodipine], the “Compound Myofibroblast Cytotoxicity Activity” value is recorded as “+++”.

Regarding `CC(NCCC(c1ccccc1)c1ccccc1)c1ccccc1` (stereo not shown) [Cmpd 450, Fendiline (hydrochloride)], the “Compound Myofibroblast Cytotoxicity Activity” value is on record as “+++”.

In the case of `Clc1ccc(C(Cn2ccnc2)OCc2ccc(Sc3ccccc3)cc2)c(Cl)c1` (stereo not shown) [Cmpd 452, Fenticonazole Nitrate], the “Compound Myofibroblast Cytotoxicity Activity” value was “++++”.

On to `COc1cc(/C=C/C(=O)O)ccc1O` [Cmpd 453, Ferulic Acid], for which the “Compound Myofibroblast Cytotoxicity Activity” value is recorded as “++”.

On to `CCc1c(Cl)c(O)c(Cl)c(O)c1C(=O)O[C@H]1[C@H](O)[C@H](OC)[C@H](OC/C2=C\C=C\C[C@H](O)/C(C)=C/[C@H](CC)[C@@H](O[C@@H]3OC(C)(C)[C@@H](OC(=O)C(C)C)[C@H](O)[C@@H]3O)/C(C)=C/C(C)=C/C[C@@H]([C@@H](C)O)OC2=O)O[C@@H]1C` [Cmpd 454, Fidaxomicin], for which the “Compound Myofibroblast Cytotoxicity Activity” value was “+++++”.

In the case of `CCC(=O)c1c(O)cc(O)cc1O` [Cmpd 458, Flopropione], the “Compound Myofibroblast Cytotoxicity Activity” value was “++”.

Consider `O=c1[nH]c(=O)n([C@H]2C[C@H](O)[C@@H](CO)O2)cc1F` [Cmpd 459, Floxuridine], for which the “Compound Myofibroblast Cytotoxicity Activity” value is “+++”.

As for `Cl.Cl.Fc1ccc(C(c2ccc(F)cc2)N2CCN(C/C=C/c3ccccc3)CC2)cc1` [Cmpd 460, Flunarizine 2HCl], the “Compound Myofibroblast Cytotoxicity Activity” value was “++”.

`CC1(C)O[C@@H]2C[C@H]3[C@@H]4C[C@H](F)C5=CC(=O)C=C[C@]5(C)[C@H]4[C@@H](O)C[C@]3(C)[C@]2(C(=O)CO)O1` [Cmpd 461, Flunisolide]: the “Compound Myofibroblast Cytotoxicity Activity” value is “++”.

With `O=C1OC2(c3ccc(O)cc3Oc3cc(O)ccc32)c2ccccc21` [Cmpd 462, Fluorescein], the “Compound Myofibroblast Cytotoxicity Activity” value was “++”.

For `CC(=O)[C@@]1(O)CC[C@H]2[C@@H]3C[C@H](C)C4=CC(=O)C=C[C@]4(C)[C@@]3(F)[C@@H](O)C[C@@]21C` [Cmpd 463, Fluorometholone], the “Compound Myofibroblast Cytotoxicity Activity” value is recorded as “++”.

On to `CNCCC(Oc1ccc(C(F)(F)F)cc1)c1ccccc1` (stereo not shown) [Cmpd 464, Fluoxetine HCl], for which the “Compound Myofibroblast Cytotoxicity Activity” value is “+++”.

For the compound `Cl.Cl.OCCN1CCN(CCCN2c3ccccc3Sc3ccc(C(F)(F)F)cc32)CC1` [Cmpd 465, Fluphenazine dihydrochloride], the “Compound Myofibroblast Cytotoxicity Activity” value is “+++++”.

As to `COCCCC/C(=N\OCCN)c1ccc(C(F)(F)F)cc1` [Cmpd 466, Fluvoxamine maleate], the “Compound Myofibroblast Cytotoxicity Activity” value is “++”.

On to `Nc1nc2ncc(CNc3ccc(C(=O)N[C@@H](CCC(=O)O)C(=O)O)cc3)nc2c(=O)[nH]1` [Cmpd 467, Folic acid], for which the “Compound Myofibroblast Cytotoxicity Activity” value is recorded as “++”.

Take `Nc1nc(=O)c2c([nH]1)NCC(CNc1ccc(C(=O)N[C@@H](CCC(=O)[O-])C(=O)[O-])cc1)N2C=O.[Ca+2]` (stereo partly shown) [Cmpd 468, Folinic Acid (calcium salt)]: the “Compound Myofibroblast Cytotoxicity Activity” value was “+++”.

As to `CNC(=O)c1c(C)oc2cc(Oc3ncnc4cc(OC)c(OC)cc34)ccc12` [Cmpd 472, Fruquintinib(HMPL-013)], the “Compound Myofibroblast Cytotoxicity Activity” value is “++++”.

Regarding `N[C@@H](CSCCCO)C(=O)O` [Cmpd 473, Fudosteine], the “Compound Myofibroblast Cytotoxicity Activity” value is “++++”.

For `CC(=O)O[C@H]1C[C@@]2(C)[C@@H](C[C@@H](O)[C@H]3[C@@]4(C)CC[C@@H](O)[C@@H](C)[C@@H]4CC[C@@]32C)/C1=C(\CCC=C(C)C)C(=O)O` [Cmpd 477, Fusidic Acid (sodium salt)], the “Compound Myofibroblast Cytotoxicity Activity” value is “+++”.

For the compound `CC(C)=C1C/C=C(\C)CC/C=C(\C)CC1=O` [Cmpd 482, Germacrone], the “Compound Myofibroblast Cytotoxicity Activity” value is given as “+++++”.

As to `COc1ccc2c(c1)C(=O)N(CCc1ccc(S(=O)(=O)NC(=O)NC3CCCCC3)cc1)C(=O)C2(C)C` [Cmpd 485, Gliquidone], the “Compound Myofibroblast Cytotoxicity Activity” value was “++”.

Take `NCC(=O)O` [Cmpd 487, Glycine (GLY)]: the “Compound Myofibroblast Cytotoxicity Activity” value is given as “++++”.
